Measurements taken from ChEMBL document CHEMBL1152406, “Conformationally restricted homotryptamines. Part 5: 3-(trans-2-aminomethylcyclopentyl)indoles as potent selective serotonin reuptake inhibitors” (Bioorg Med Chem Lett, 2009).
Activity calls are given as the source filed them. The calls are words filed in the database; no cut-off is given here.

Key:
[1] = molecular target: Sodium-dependent serotonin transporter (Homo sapiens, UniProt P31645); test: Displacement of [125I]RTI-55 from human SERT expressed in HEK293 cells; assay type: cell-based
Rattus norvegicus [2] = test: Increase in extracellular serotonin level in frontal cortex of awake and free moving rat at 1 mg/kg, po by microdialysis relative to basal level; assay type: functional
[3] = molecular target: Sodium-dependent dopamine transporter (Homo sapiens, UniProt Q01959); test: Displacement of [125I]RTI-55 from human DAT expressed in HEK293 cells; assay type: cell-based
Rattus norvegicus [4] = test: Increase in extracellular serotonin level in frontal cortex of awake and free moving rat at 5 mg/kg, po by microdialysis relative to basal level; assay type: functional
[5] = molecular target: Sodium-dependent noradrenaline transporter (Homo sapiens, UniProt P23975); test: Displacement of [125I]nisoxetine from human NET expressed in HEK293 cells; assay type: cell-based
Rattus norvegicus [6] = test: Increase in extracellular serotonin level in frontal cortex of awake and free moving rat at 0.3 to 3 mg/kg, po by microdialysis; assay type: functional, organism-based

Sequence of Sodium-dependent serotonin transporter (P31645 whole entry): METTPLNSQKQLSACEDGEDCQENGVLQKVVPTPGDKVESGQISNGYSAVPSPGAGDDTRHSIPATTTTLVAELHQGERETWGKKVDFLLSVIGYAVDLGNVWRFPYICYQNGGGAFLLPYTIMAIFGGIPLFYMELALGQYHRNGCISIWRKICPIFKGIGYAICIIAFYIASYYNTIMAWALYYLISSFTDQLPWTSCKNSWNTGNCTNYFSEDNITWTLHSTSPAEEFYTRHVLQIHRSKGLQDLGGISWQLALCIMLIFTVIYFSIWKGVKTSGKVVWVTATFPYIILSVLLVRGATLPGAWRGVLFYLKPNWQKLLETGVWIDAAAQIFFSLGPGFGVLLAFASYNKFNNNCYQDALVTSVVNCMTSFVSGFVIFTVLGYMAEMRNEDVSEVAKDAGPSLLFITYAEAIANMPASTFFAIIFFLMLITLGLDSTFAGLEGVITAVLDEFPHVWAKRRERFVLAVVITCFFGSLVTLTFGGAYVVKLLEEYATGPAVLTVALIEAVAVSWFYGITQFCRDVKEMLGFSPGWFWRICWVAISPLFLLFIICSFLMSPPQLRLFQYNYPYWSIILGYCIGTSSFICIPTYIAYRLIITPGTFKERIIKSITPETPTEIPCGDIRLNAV
Sequence of Sodium-dependent noradrenaline transporter (P23975 whole entry): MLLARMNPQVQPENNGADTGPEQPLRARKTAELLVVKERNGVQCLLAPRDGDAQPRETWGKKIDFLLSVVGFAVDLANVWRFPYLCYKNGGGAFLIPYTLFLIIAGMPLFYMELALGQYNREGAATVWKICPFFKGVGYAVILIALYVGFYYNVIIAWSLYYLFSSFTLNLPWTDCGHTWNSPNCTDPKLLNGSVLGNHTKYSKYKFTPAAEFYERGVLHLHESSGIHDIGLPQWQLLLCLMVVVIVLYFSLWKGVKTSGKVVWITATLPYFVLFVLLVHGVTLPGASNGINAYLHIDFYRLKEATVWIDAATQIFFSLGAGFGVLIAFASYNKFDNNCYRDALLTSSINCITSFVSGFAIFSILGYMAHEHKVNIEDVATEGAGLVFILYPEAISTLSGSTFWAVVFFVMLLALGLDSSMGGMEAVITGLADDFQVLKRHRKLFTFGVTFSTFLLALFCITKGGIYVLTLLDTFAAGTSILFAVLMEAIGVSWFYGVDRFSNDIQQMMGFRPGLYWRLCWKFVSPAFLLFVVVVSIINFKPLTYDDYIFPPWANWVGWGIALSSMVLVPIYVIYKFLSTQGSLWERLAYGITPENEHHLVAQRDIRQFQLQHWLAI
Sequence of Sodium-dependent dopamine transporter (Q01959 whole entry): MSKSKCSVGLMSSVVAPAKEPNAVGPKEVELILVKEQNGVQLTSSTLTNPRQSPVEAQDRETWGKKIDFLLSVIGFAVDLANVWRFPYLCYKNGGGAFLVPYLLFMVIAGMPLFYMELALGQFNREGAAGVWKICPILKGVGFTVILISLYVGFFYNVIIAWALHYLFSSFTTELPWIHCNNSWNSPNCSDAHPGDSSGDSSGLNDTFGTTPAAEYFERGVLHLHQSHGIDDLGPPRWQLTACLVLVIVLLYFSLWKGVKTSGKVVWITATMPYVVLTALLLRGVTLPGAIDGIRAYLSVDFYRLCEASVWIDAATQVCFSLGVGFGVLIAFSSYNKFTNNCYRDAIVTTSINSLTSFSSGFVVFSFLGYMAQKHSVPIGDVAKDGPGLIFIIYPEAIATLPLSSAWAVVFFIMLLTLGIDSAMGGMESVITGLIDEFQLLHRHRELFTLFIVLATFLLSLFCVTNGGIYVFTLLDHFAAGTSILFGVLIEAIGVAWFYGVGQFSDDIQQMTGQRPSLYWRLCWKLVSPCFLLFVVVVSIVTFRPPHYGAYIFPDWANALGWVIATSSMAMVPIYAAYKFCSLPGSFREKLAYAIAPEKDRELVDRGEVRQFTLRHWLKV

SMILES	IC50 [1]	other results
CNC[C@H]1CCC[C@@H]1c1c[nH]c2ccc(C#N)cc12 (racemic)	7 nM	–
CCN(C)C[C@H]1CCC[C@@H]1c1c[nH]c2ccc(C#N)cc12 (racemic)	10 nM	–
CN(Cc1ccccc1)C[C@H]1CCC[C@@H]1c1c[nH]c2ccc(C#N)cc12 (racemic)	85 nM	–
CN(C)C[C@@H]1CCC[C@@H]1c1c[nH]c2ccc(C#N)cc12	1.2 nM	–
CN(C)C[C@H]1CCC[C@@H]1c1c[nH]c2ccc(C#N)cc12 [listing 1 of 2 here]	0.13 nM	Activity (Rattus norvegicus [2]): >300%; IC50 [3]: 690 nM; Activity (Rattus norvegicus [4]): >300%; IC50 [5]: 7900 nM
CN(C)C[C@@H]1CCC[C@@H]1c1c[nH]c2ccc(C#N)cc12 (racemic)	2.6 nM	–
CCN(CC)C[C@H]1CCC[C@@H]1c1c[nH]c2ccc(C#N)cc12 (racemic)	240 nM	–
N#Cc1ccc2[nH]cc([C@H]3CCC[C@@H]3CN3CCCC3)c2c1 (racemic)	22 nM	–
CN(C)C[C@H]1CCC[C@@H]1c1c[nH]c2ccc(C#N)cc12 (racemic)	0.32 nM	–
CN(C)C[C@H]1CCC[C@H]1c1c[nH]c2ccc(C#N)cc12	130 nM	–
CCNC[C@H]1CCC[C@@H]1c1c[nH]c2ccc(C#N)cc12 (racemic)	170 nM	–
CN(C)C[C@H]1CCC[C@@H]1c1c[nH]c2ccc(C#N)cc12 [listing 2 of 2 here]	–	Activity (Rattus norvegicus [6]): Active
CN(C)C[C@@H]1CCC[C@H]1c1c[nH]c2ccc(C#N)cc12	58 nM	–
CN(C)C[C@H]1C[C@@H]1c1c[nH]c2ccc(C#N)cc12	0.36 nM	IC50 [3]: 4200 nM; IC50 [5]: 9200 nM
